# Tested on: L. infantum promastigote forms
# Experiment: In vitro activity against extracellular (promastigote) forms
# Type: cell-based, Leishmania infantum
# Conditions: IC50 of macrophages / IC50 of parasite form
# Source text: (§1) Methodology: Cultures of three Leishmania species, representative of the species causing each of the clinical forms of the disease, were used for these studies. Specifically, strains MCAN/ES/2001/UCM-1 O of L.infantum, isolated and characterised in Madrid from an infected dog; MHOM/BR/1975/M2904 of L.braziliensis, isolated in Brazil in a human case, and LCR-L 133 LRC of L.donovani. isolated in Jerusalem, Israel from a case of kala-azar […] (WHO Technical Reports Series 949. Geneva: WHO. March. The cultures of parasites come from an own collection which was prepared from a biobank project (Biobank and Characterisation Unit of Strains and Species of Trypanosomatids, Responsible for Human, Animal and Plant Pathologies, Cgl-2008-03687-E/Bos.), and are available on request.
# (§2) The promastigote forms of the three species studied were cultured in vitro in sterility in single-phase MTL culture medium (Medium Trypanosomes Liquid) made from Hank’s Balanced Salts (Sigma-Aldrich, H6136) enriched with 10% (v/v) of Fetal Bovine Serum (SBF-1) inactivated at 56° C./ 30 minutes. The parasite inoculum to initiate the culture was 5 × 10^4 cells/ml in 5 ml medium in 25 cm^2 Falcon® plastic flasks and kept in an oven at 28° C. The cultures were performed routinely, achieving exponential growth of the flagellates until obtaining the cell mass necessary for the subsequent studies. Both promastigote forms and amastigote forms were used to conduct the assays.
# (§3) The promastigote forms of the three Leishmania strains, cultured in the manner described above, were harvested in their exponential growth phase by centrifugation at 400 g for 10 min. The number of parasites was counted in a Neubauer Haemocytometer Counting Chamber and were inoculated in a 24-well plate at a concentration of 5 ×10^4 parasites/well.
# (§4) The compounds to be assayed were dissolved in DMSO at a concentration of 0.01% (v/v), concentration at which this solvent is not toxic nor has any effect on the growth of parasites. The compounds were added to the culture medium at final concentrations of 100, 50, 25 and 12.5 µM. […] M. et al. Med. Chem. 2011. 54. 970-979].
row,SMILES,Selectivity Index (SI) L. infantum Promastigote forms
1,CNCCNCc1ccnc2ccccc12 [Compound 10],13
2,"CNCCNCc1ccc2ccccc2n1 [Compound 9, 1-{2-quinolyl)-2,5-diazahexane]",23
3,"CN(C)CCNCc1ccccn1 [Compound 4, 1-(2-pyridyl)-5-methyl-2,5-diazahexane]",43
4,CN(C)CCNCc1ccc2ccccc2n1 [Compound 7],5
5,"CN(C)CCNCc1ccnc2ccccc12 [Compound 8, 1-{4-quinolyl)-5-methyl-2,5-diazahexane]",2 (2)

# Same assay, conditions: Leishmania infantum, 72 h
row,SMILES,IC50
1,CNCCNCc1ccnc2ccccc12 [Compound 10],12.5 ± 1.1 µM
2,"CNCCNCc1ccc2ccccc2n1 [Compound 9, 1-{2-quinolyl)-2,5-diazahexane]",15.6 ± 0.8 µM
3,"CN(C)CCNCc1ccccn1 [Compound 4, 1-(2-pyridyl)-5-methyl-2,5-diazahexane]",28.6 ± 2.5 µM
4,CN(C)CCNCc1ccc2ccccc2n1 [Compound 7],84.4 ± 5.1 µM
5,"CN(C)CCNCc1ccnc2ccccc12 [Compound 8, 1-{4-quinolyl)-5-methyl-2,5-diazahexane]",14.1 ± 0.6 µM

# Tested on: L. donovani promastigote forms
# Experiment: as above
# Type: cell-based, Leishmania donovani
# Conditions: IC50 of macrophages / IC50 of parasite form
# Source text: as §1, §2, §3, §4
row,SMILES,Selectivity Index (SI) L. donvovani Promastigote forms
1,CNCCNCc1ccnc2ccccc12 [Compound 10],7
2,"CNCCNCc1ccc2ccccc2n1 [Compound 9, 1-{2-quinolyl)-2,5-diazahexane]",13
3,"CN(C)CCNCc1ccccn1 [Compound 4, 1-(2-pyridyl)-5-methyl-2,5-diazahexane]",36
4,CN(C)CCNCc1ccc2ccccc2n1 [Compound 7],8
5,"CN(C)CCNCc1ccnc2ccccc12 [Compound 8, 1-{4-quinolyl)-5-methyl-2,5-diazahexane]",2 (2)

# Same assay, conditions: Leishmania donovani, 72 h
row,SMILES,IC50
1,CNCCNCc1ccnc2ccccc12 [Compound 10],24.1 ± 0.6 µM
2,"CNCCNCc1ccc2ccccc2n1 [Compound 9, 1-{2-quinolyl)-2,5-diazahexane]",27.5 ± 0.4 µM
3,"CN(C)CCNCc1ccccn1 [Compound 4, 1-(2-pyridyl)-5-methyl-2,5-diazahexane]",34.8 ± 1.5 µM
4,CN(C)CCNCc1ccc2ccccc2n1 [Compound 7],56.9 ± 2.7 µM
5,"CN(C)CCNCc1ccnc2ccccc12 [Compound 8, 1-{4-quinolyl)-5-methyl-2,5-diazahexane]",12.8 ± 0.6 µM

# Tested on: L. braziliensis promastigote forms
# Experiment: as above
# Type: cell-based, Leishmania braziliensis
# Conditions: IC50 of macrophages / IC50 of parasite form
# Source text: as §1, §2, §3, §4
row,SMILES,Selectivity Index (SI) L. brazilensis Promastigote forms
1,CNCCNCc1ccnc2ccccc12 [Compound 10],9
2,"CNCCNCc1ccc2ccccc2n1 [Compound 9, 1-{2-quinolyl)-2,5-diazahexane]",13
3,"CN(C)CCNCc1ccccn1 [Compound 4, 1-(2-pyridyl)-5-methyl-2,5-diazahexane]",33
4,CN(C)CCNCc1ccc2ccccc2n1 [Compound 7],4
5,"CN(C)CCNCc1ccnc2ccccc12 [Compound 8, 1-{4-quinolyl)-5-methyl-2,5-diazahexane]",2

# Same assay, conditions: Leishmania braziliensis, 72 h
row,SMILES,IC50
1,CNCCNCc1ccnc2ccccc12 [Compound 10],18.4 ± 1.1 µM
2,"CNCCNCc1ccc2ccccc2n1 [Compound 9, 1-{2-quinolyl)-2,5-diazahexane]",28 ± 0.3 µM
3,"CN(C)CCNCc1ccccn1 [Compound 4, 1-(2-pyridyl)-5-methyl-2,5-diazahexane]",37.3 ± 0.9 µM
4,CN(C)CCNCc1ccc2ccccc2n1 [Compound 7],105 ± 11.6 µM
5,"CN(C)CCNCc1ccnc2ccccc12 [Compound 8, 1-{4-quinolyl)-5-methyl-2,5-diazahexane]",13.8 ± 0.7 µM

# Tested on: L. infantum amastigote forms
# Experiment: In vitro activity against intracellular (amastigote) forms in macrophages
# Type: cell-based, Leishmania infantum
# Conditions: IC50 of macrophages / IC50 of parasite form
# Source text: as §1
# (§5) For the study of the in vitro effect on intracellular forms of Leishmania, the experimental model designed by the group of the present inventors was used [Sánchez-Moreno. M. et al. Med. Chem. 2012, 55, 9900-9913; Sánchez-Moreno. M. et al. J. Antimicrob. Chemother. 2012, 67, 387-397]. The macrophages were detached from the culture flask where they were attached by dry blows. To do this, it was incubated in cold for 5 minutes and after that the flask was hit with the palm of the hand until the cells were detached from the flask. Then, they were passed to a 25 ml capacity steriling conical bottom flask (Deltalab) to centrifuge them at 120 g for 5 minutes, removing the supernatant and were counted in Neubauer’s chamber. Cells were suspended in RPMI medium at a concentration of 1×10^4 cells/well, then cultured in 24-well plates into which a 12 mm round slide had previously been placed into each well. For adherence, the cells were left 24 h at 37° C. in 5% CO2. Subsequently, the cells were infected in vitro by placing Leishmania cells at the rate of 10 parasites/macrophage according to [Sánchez-Moreno. M et al. Med. Chem. 2011, 54, 970-979]. […] The products were allowed to act for 72 hours of incubation.
# (§6) After that time, the crystals were removed and fixed with methanol on a slide and allowed to dry, after which DPX microscopy mounting medium (Panreac®) was added to it. Once the preparations had been mounted, they were dyed with Giemsa by diluting Azur-Eosin-Methylene Blue solution according to Giemsa DC (Code 251338) with Sorensen buffer (1:10 dilution). The preparations were covered and allowed to colour for 20 minutes, after which they were washed with distilled water and then allowed to drain and dry vertically. Finally, the amastigote forms were counted with the aim of immersion in a total of 200 cells.
row,SMILES,Selectivity Index (SI) L. infantum Amastigote forms
1,CNCCNCc1ccnc2ccccc12 [Compound 10],9
2,"CNCCNCc1ccc2ccccc2n1 [Compound 9, 1-{2-quinolyl)-2,5-diazahexane]",25
3,"CN(C)CCNCc1ccccn1 [Compound 4, 1-(2-pyridyl)-5-methyl-2,5-diazahexane]",37
4,CN(C)CCNCc1ccc2ccccc2n1 [Compound 7],9
5,"CN(C)CCNCc1ccnc2ccccc12 [Compound 8, 1-{4-quinolyl)-5-methyl-2,5-diazahexane]",2

# Same assay, conditions: Leishmania infantum, Macrophage, 72 h
row,SMILES,IC50
1,CNCCNCc1ccnc2ccccc12 [Compound 10],18.7 ± 1.5 µM
2,"CNCCNCc1ccc2ccccc2n1 [Compound 9, 1-{2-quinolyl)-2,5-diazahexane]",14.3 ± 0.6 µM
3,"CN(C)CCNCc1ccccn1 [Compound 4, 1-(2-pyridyl)-5-methyl-2,5-diazahexane]",33.6 ± 1.4 µM
4,CN(C)CCNCc1ccc2ccccc2n1 [Compound 7],49.7 ± 3.6 µM
5,"CN(C)CCNCc1ccnc2ccccc12 [Compound 8, 1-{4-quinolyl)-5-methyl-2,5-diazahexane]",11.5 ± 0.8 µM

# Tested on: J774.2 macrophages
# Experiment: Macrophage toxicity by flow cytometry
# Type: cell-based
# Conditions: J774.2 macrophages, 72 h of culture
# Procedure: Macrophage toxicity: this study used the experimental model designed by the group of inventors [I. Ramírez-Macías. et. al. J. Antimicrob. Chemother. 2011, 66(4): 813-819] wherein flow cytometry is used. Briefly, macrophages from line J774.2 (ECACC number 91051511, obtained from a BALB/c female […] tumour in 1968) were deposited in a steriling tube and centrifuged at 120 g for 5 minutes. The supernatant was discarded and the cells were resuspended in MEM + Glutamine medium with 20% SBF (fetal bovine serum). 1×10^4 cells per well were then deposited from a 24-well titration plate and incubated for 24-48 h at 37° C. in a humid atmosphere enriched with 5% CO2 to fix them. […] After 72 h of incubation, the samples were prepared for reading on a flow cytometer. Specifically, 100 µl of propidium iodide solution (100 µg/ml) was added to each well and incubated for 10 min at 28° C. in the dark. Subsequently, 100 µl/well of fluorescein diacetate (FDA) (Sigma Chemical Co) in solution (100 ng/mL) was added and incubation was repeated under the same conditions for 10 minutes. Cells were recovered by centrifugation at 400 g for 10 minutes and washing the precipitate with PBS. Finally, the results were analysed in a FACS Vantage flow cytometer (Becton Dickinson) taking into account that the cells with the plasma membrane intact emit green colour as the esterases act on the FDA, while the cells that have lost the integrity of the membrane and are not viable, emit in the range close to 580 nm by penetrating the propidium iodide by passive diffusion and specifically binding to the nucleic acids thereof. Thus, to calculate the percentage of viability, the number of dead cells compared to controls was taken into account.
row,SMILES,IC50
1,CNCCNCc1ccnc2ccccc12 [Compound 10],164 ± 10 µM
2,"CNCCNCc1ccc2ccccc2n1 [Compound 9, 1-{2-quinolyl)-2,5-diazahexane]",354 ± 31.7 µM
3,"CN(C)CCNCc1ccccn1 [Compound 4, 1-(2-pyridyl)-5-methyl-2,5-diazahexane]",1240 ± 42.7 µM
4,CN(C)CCNCc1ccc2ccccc2n1 [Compound 7],442 ± 31.6 µM
5,"CN(C)CCNCc1ccnc2ccccc12 [Compound 8, 1-{4-quinolyl)-5-methyl-2,5-diazahexane]",22.5 ± 0.6 µM

# Tested on: L. donovani amastigote forms
# Experiment: In vitro activity against intracellular (amastigote) forms in macrophages
# Type: cell-based, Leishmania donovani
# Conditions: IC50 of macrophages / IC50 of parasite form
# Source text: as §1, §5, §6
row,SMILES,Selectivity Index (SI) L. donvovani Amastigote forms
1,CNCCNCc1ccnc2ccccc12 [Compound 10],6
2,"CNCCNCc1ccc2ccccc2n1 [Compound 9, 1-{2-quinolyl)-2,5-diazahexane]",11
3,"CN(C)CCNCc1ccccn1 [Compound 4, 1-(2-pyridyl)-5-methyl-2,5-diazahexane]",32
4,CN(C)CCNCc1ccc2ccccc2n1 [Compound 7],11
5,"CN(C)CCNCc1ccnc2ccccc12 [Compound 8, 1-{4-quinolyl)-5-methyl-2,5-diazahexane]",2

# Same assay, conditions: Leishmania donovani, Macrophage, 72 h
row,SMILES,IC50
1,CNCCNCc1ccnc2ccccc12 [Compound 10],26.8 ± 2.1 µM
2,"CNCCNCc1ccc2ccccc2n1 [Compound 9, 1-{2-quinolyl)-2,5-diazahexane]",31.9 ± 1.1 µM
3,"CN(C)CCNCc1ccccn1 [Compound 4, 1-(2-pyridyl)-5-methyl-2,5-diazahexane]",38.8 ± 1.4 µM
4,CN(C)CCNCc1ccc2ccccc2n1 [Compound 7],38.9 ± 3.2 µM
5,"CN(C)CCNCc1ccnc2ccccc12 [Compound 8, 1-{4-quinolyl)-5-methyl-2,5-diazahexane]",10.6 ± 0.6 µM

# Tested on: L. braziliensis amastigote forms
# Experiment: as above
# Type: cell-based, Leishmania braziliensis
# Conditions: IC50 of macrophages / IC50 of parasite form
# Source text: as §1, §5, §6
row,SMILES,Selectivity Index (SI) L. brazilensis Amastigote forms
1,CNCCNCc1ccnc2ccccc12 [Compound 10],8
2,"CNCCNCc1ccc2ccccc2n1 [Compound 9, 1-{2-quinolyl)-2,5-diazahexane]",13
3,"CN(C)CCNCc1ccccn1 [Compound 4, 1-(2-pyridyl)-5-methyl-2,5-diazahexane]",40
4,CN(C)CCNCc1ccc2ccccc2n1 [Compound 7],11
5,"CN(C)CCNCc1ccnc2ccccc12 [Compound 8, 1-{4-quinolyl)-5-methyl-2,5-diazahexane]",1

# Same assay, conditions: Leishmania braziliensis, Macrophage, 72 h
row,SMILES,IC50
1,CNCCNCc1ccnc2ccccc12 [Compound 10],21.7 ± 2.3 µM
2,"CNCCNCc1ccc2ccccc2n1 [Compound 9, 1-{2-quinolyl)-2,5-diazahexane]",26.5 ± 0.9 µM
3,"CN(C)CCNCc1ccccn1 [Compound 4, 1-(2-pyridyl)-5-methyl-2,5-diazahexane]",30.8 ± 1.3 µM
4,CN(C)CCNCc1ccc2ccccc2n1 [Compound 7],38.9 ± 2.7 µM
5,"CN(C)CCNCc1ccnc2ccccc12 [Compound 8, 1-{4-quinolyl)-5-methyl-2,5-diazahexane]",16.8 ± 1.1 µM

# From patent US20230346769A1, “USE OF SIMPLE ACYCLIC POLYAMINES FOR THE TREATMENT OF DISEASES CAUSED BY PARASITES OF THE GENUS LEISHMANIA” (Universidad De Granada, priority 2020, published 2023)
